Reference: ChEMBL document CHEMBL1152719, “Non-urea functionality as the primary pharmacophore in soluble epoxide hydrolase inhibitors” (Bioorg Med Chem Lett, 2009)

Target: T1, Bifunctional epoxide hydrolase 2 (Homo sapiens, UniProt P34913)
T1 sequence (P34913 whole entry): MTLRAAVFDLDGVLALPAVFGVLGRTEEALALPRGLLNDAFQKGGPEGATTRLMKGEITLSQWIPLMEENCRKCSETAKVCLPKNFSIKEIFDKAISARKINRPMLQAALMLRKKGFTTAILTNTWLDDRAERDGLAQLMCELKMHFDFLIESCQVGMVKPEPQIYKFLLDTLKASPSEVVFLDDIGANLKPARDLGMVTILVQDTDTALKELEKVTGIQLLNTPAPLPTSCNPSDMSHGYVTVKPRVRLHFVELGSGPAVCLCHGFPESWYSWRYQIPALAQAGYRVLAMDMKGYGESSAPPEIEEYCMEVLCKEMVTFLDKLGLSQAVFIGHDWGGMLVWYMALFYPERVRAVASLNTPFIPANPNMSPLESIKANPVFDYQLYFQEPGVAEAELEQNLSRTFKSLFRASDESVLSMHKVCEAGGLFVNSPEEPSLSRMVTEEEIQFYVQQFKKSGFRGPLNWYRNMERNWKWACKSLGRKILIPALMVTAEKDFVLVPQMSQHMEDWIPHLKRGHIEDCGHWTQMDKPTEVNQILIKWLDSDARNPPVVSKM
Test: Inhibition of soluble epoxide hydrolase by fluorescence assay

IC50 [nM] | SMILES
28 | O=C(CC1CCCCC1)Nc1cccc(OCCCN2CCOCC2)c1
88 | O=C(Nc1cccc(OCCCN2CCOCC2)c1)C12CC3CC(CC(C3)C1)C2
2.5 | O=C(CC12CC3CC(CC(C3)C1)C2)Nc1cccc(OCCCN2CCOCC2)c1
390 | O=C(Nc1cccc(OCCCN2CCOCC2)c1)C1CCCCC1
1.2 | O=C(Nc1ccc(C(F)(F)F)cc1)Nc1cccc(OCCCN2CCOCC2)c1
8.2 | O=C(Nc1ccc(OC(F)(F)F)cc1)Nc1cccc(OCCCN2CCOCC2)c1
0.8 | O=C(Nc1cccc(OCCCN2CCOCC2)c1)NC12CC3CC(CC(C3)C1)C2
3.9 | O=C(Nc1cccc(OCCCN2CCOCC2)c1)NC1CCCCC1
55 | O=C(Cc1ccc(C(F)(F)F)cc1)Nc1cccc(OCCCN2CCOCC2)c1
22 | S=C(Nc1cccc(OCCCN2CCOCC2)c1)NC12CC3CC(CC(C3)C1)C2
530 | O=C(Nc1cccc(OCCCN2CCOCC2)c1)C(O)CCC12CC3CC(CC(C3)C1)C2 (centres undefined)
> 2000 | O=C(Nc1cccc(OCCCN2CCOCC2)c1)C(=O)C12CC3CC(CC(C3)C1)C2
48 | O=C(CCC12CC3CC(CC(C3)C1)C2)C(=O)Nc1cccc(OCCCN2CCOCC2)c1
3600 | O=S(=O)(Nc1cccc(OCCCN2CCOCC2)c1)NC12CC3CC(CC(C3)C1)C2
> 2000 | O=C(Nc1cccc(OCCCN2CCOCC2)c1)C(O)C12CC3CC(CC(C3)C1)C2 (centres undefined)
23 | O=C(Nc1cccc(OCCCN2CCOCC2)c1)C(O)CC12CC3CC(CC(C3)C1)C2 (centres undefined)
93 | O=C(Nc1cccc(OCCCN2CCOCC2)c1)c1ccc(C(F)(F)F)cc1
1110 | O=C(CC12CC3CC(CC(C3)C1)C2)C(=O)Nc1ccc(OCc2ccccc2)cc1
685 | O=C(CCC12CC3CC(CC(C3)C1)C2)C(=O)NCCc1ccc(OCc2ccccc2)cc1
15 | O=C(NCCc1ccc(OCc2ccccc2)cc1)NCCC12CC3CC(CC(C3)C1)C2
185 | O=C(NCCc1ccc(OCc2ccccc2)cc1)C(O)CC12CC3CC(CC(C3)C1)C2 (centres undefined)
11 | O=C(NCCc1ccc(OCc2ccccc2)cc1)C(O)CCC12CC3CC(CC(C3)C1)C2 (centres undefined)
310 | O=C(Nc1ccc(OCc2ccccc2)cc1)C(O)C12CC3CC(CC(C3)C1)C2 (centres undefined)
270 | O=C(Nc1ccc(OCc2ccccc2)cc1)C(O)CC12CC3CC(CC(C3)C1)C2 (centres undefined)
1540 | O=C(CC12CC3CC(CC(C3)C1)C2)C(=O)NCCc1ccc(OCc2ccccc2)cc1
210 | O=C(Nc1ccc(OCc2ccccc2)cc1)C(=O)C12CC3CC(CC(C3)C1)C2
15000 | O=S(=O)(Nc1cccc(OCCCN2CCOCC2)c1)c1ccc(C(F)(F)F)cc1
110 | O=C(CNC12CC3CC(CC(C3)C1)C2)Nc1cccc(OCCCN2CCOCC2)c1
49 | O=C(CC12CC3CC(CC(C3)C1)C2)C(=O)Nc1cccc(OCCCN2CCOCC2)c1
